Assay results: ChEMBL document CHEMBL4308841, “Synthesis, in vitro antiproliferative activity, and kinase inhibitory effects of pyrazole-containing diarylureas and diarylamides” (Eur J Med Chem, 2018)

What was measured:
DU-145 [1] = test: Growth inhibition of human DU145 cells assessed as cell growth at 0.1 uM incubated for 48 hrs by sulforhodamine B assay relative to control; type: functional; settings: DU-145, 48 h, read-out: Activity
SF-295 = test: Growth inhibition of human SF295 cells assessed as cell growth at 0.1 uM incubated for 48 hrs by sulforhodamine B assay relative to control; type: functional; settings: SF-295, 48 h, read-out: Activity
SN12C [2] = test: Growth inhibition of human SN12C cells incubated for 48 hrs by sulforhodamine B assay; type: functional, cell-based
786-0 = test: Growth inhibition of human 786-0 cells assessed as cell growth at 100 uM incubated for 48 hrs by sulforhodamine B assay relative to control; type: functional; settings: 786-0, 48 h, read-out: Activity
CCRF-CEM = test: Growth inhibition of human CCRF-CEM cells assessed as cell growth at 0.01 uM incubated for 48 hrs by sulforhodamine B assay relative to control; type: functional; settings: read-out: Activity
NCI-H460 [3] = test: Growth inhibition of human NCI-H460 cells assessed as cell growth at 1 uM incubated for 48 hrs by sulforhodamine B assay relative to control; type: functional; settings: NCI-H460, 48 h, read-out: Activity
SF-539 = test: Growth inhibition of human SF539 cells assessed as cell growth at 100 uM incubated for 48 hrs by sulforhodamine B assay relative to control; type: functional; settings: SF-539, 48 h, read-out: Activity
OVCAR-3 [4] = test: Growth inhibition of human OVCAR3 cells assessed as cell growth at 1 uM incubated for 48 hrs by sulforhodamine B assay relative to control; type: functional; settings: OVCAR-3, 48 h, read-out: Activity
CAKI-1 = test: Growth inhibition of human Caki1 cells assessed as cell growth at 0.1 uM incubated for 48 hrs by sulforhodamine B assay relative to control; type: functional; settings: CAKI-1, 48 h, read-out: Activity
SF-268 = test: Growth inhibition of human SF268 cells assessed as cell growth at 1 uM incubated for 48 hrs by sulforhodamine B assay relative to control; type: functional; settings: SF-268, 48 h, read-out: Activity
MDA-MB-435 = test: Growth inhibition of human MDA-MB-435 cells assessed as cell growth at 0.01 uM incubated for 48 hrs by sulforhodamine B assay relative to control; type: functional; settings: MDA-MB-435, 48 h, read-out: Activity
HOP-62 [5] = test: Growth inhibition of human HOP62 cells assessed as cell growth at 100 uM incubated for 48 hrs by sulforhodamine B assay relative to control; type: functional; settings: HOP-62, 48 h, read-out: Activity
SN12C [6] = test: Growth inhibition of human SN12C cells assessed as cell growth at 0.01 uM incubated for 48 hrs by sulforhodamine B assay relative to control; type: functional; settings: read-out: Activity
SK-MEL-2 = test: Growth inhibition of human SK-MEL-2 cells assessed as cell growth at 1 uM incubated for 48 hrs by sulforhodamine B assay relative to control; type: functional; settings: SK-MEL-2, 48 h, read-out: Activity
HCC 2998 = test: Growth inhibition of human HCC2998 cells assessed as cell growth at 0.01 uM incubated for 48 hrs by sulforhodamine B assay relative to control; type: functional; settings: HCC 2998, 48 h, read-out: Activity
MDA-MB-231 = test: Growth inhibition of human MDA-MB-231 cells assessed as cell growth at 0.1 uM incubated for 48 hrs by sulforhodamine B assay relative to control; type: functional; settings: MDA-MB-231, 48 h, read-out: Activity
SR = test: Growth inhibition of human SR cells assessed as cell growth at 100 uM incubated for 48 hrs by sulforhodamine B assay relative to control; type: functional; settings: read-out: Activity
MDA-MB-468 = test: Growth inhibition of human MDA-MB-468 cells assessed as cell growth at 0.01 uM incubated for 48 hrs by sulforhodamine B assay relative to control; type: functional; settings: MDA-MB-468, 48 h, read-out: Activity
NCI/ADR-RES = test: Growth inhibition of human NCI/ADR-RES cells assessed as cell growth at 0.1 uM incubated for 48 hrs by sulforhodamine B assay relative to control; type: functional; settings: read-out: Activity
NCI-H460 [7] = test: Growth inhibition of human NCI-H460 cells assessed as cell growth at 0.1 uM incubated for 48 hrs by sulforhodamine B assay relative to control; type: functional; settings: NCI-H460, 48 h, read-out: Activity
HOP-62 [8] = test: Growth inhibition of human HOP62 cells incubated for 48 hrs by sulforhodamine B assay; type: functional, cell-based; settings: HOP-62, 48 h
SNB-19 [9] = test: Growth inhibition of human SNB19 cells assessed as cell growth at 0.1 uM incubated for 48 hrs by sulforhodamine B assay relative to control; type: functional; settings: SNB-19, 48 h, read-out: Activity
A498 = test: Growth inhibition of human A498 cells assessed as cell growth at 100 uM incubated for 48 hrs by sulforhodamine B assay relative to control; type: functional; settings: A498, 48 h, read-out: Activity
OVCAR-3 [10] = test: Growth inhibition of human OVCAR3 cells incubated for 48 hrs by sulforhodamine B assay; type: functional, cell-based; settings: OVCAR-3, 48 h
IGROV-1 = test: Growth inhibition of human IGROV1 cells assessed as cell growth at 100 uM incubated for 48 hrs by sulforhodamine B assay relative to control; type: functional; settings: IGROV-1, 48 h, read-out: Activity
NCI-H322M = test: Growth inhibition of human NCI-H322M cells assessed as cell growth at 1 uM incubated for 48 hrs by sulforhodamine B assay relative to control; type: functional; settings: read-out: Activity
UACC-257 = test: Growth inhibition of human UACC257 cells assessed as cell growth at 100 uM incubated for 48 hrs by sulforhodamine B assay relative to control; type: functional; settings: UACC-257, 48 h, read-out: Activity
NCI-H226 = test: Growth inhibition of human NCI-H226 cells assessed as cell growth at 100 uM incubated for 48 hrs by sulforhodamine B assay relative to control; type: functional; settings: NCI-H226, 48 h, read-out: Activity
SNB-19 [11] = test: Growth inhibition of human SNB19 cells assessed as cell growth at 100 uM incubated for 48 hrs by sulforhodamine B assay relative to control; type: functional; settings: SNB-19, 48 h, read-out: Activity
DU-145 [12] = test: Growth inhibition of human DU145 cells assessed as cell growth at 100 uM incubated for 48 hrs by sulforhodamine B assay relative to control; type: functional; settings: DU-145, 48 h, read-out: Activity
HOP-62 [13] = test: Growth inhibition of human HOP62 cells assessed as cell growth at 1 uM incubated for 48 hrs by sulforhodamine B assay relative to control; type: functional; settings: HOP-62, 48 h, read-out: Activity
COLO 205 = test: Growth inhibition of human COLO205 cells assessed as cell growth at 1 uM incubated for 48 hrs by sulforhodamine B assay relative to control; type: functional; settings: COLO 205, 48 h, read-out: Activity
[14] = read-out: LC50 (the source's name)
[15] = read-out: pLC50 (the source's name) (converted)

## O=C(Nc1cccc(-n2cc(-c3ccncc3)c(-c3cc(O)cc(Cl)c3)n2)c1)c1cc(C(F)(F)F)cc(C(F)(F)F)c1
DU-145 [1]
  growth at 0.1 µM: 99%
SF-295
  growth at 0.1 µM: 89%
SN12C [2]; read-out: GI50
  GI50: 4.77 µM
SN12C [2]; read-out: LC50
  LC50: > 100 µM
SN12C [2]; read-out: TGI
  TGI: > 100 µM
SN12C [2]; read-out: pGI50 (converted)
  GI50: 4.79 µM
SN12C [2]; read-out: pLC50 (converted)
  LC50: > 100 µM
SN12C [2]; read-out: pTGI (converted)
  TGI: > 100 µM
786-0
  growth at 100 µM: -28%
CCRF-CEM
  growth at 0.01 µM: 96%
NCI-H460 [3]
  growth at 1 µM: 92%
SF-539
  growth at 100 µM: -13%
OVCAR-3 [4]
  growth at 1 µM: 96%
CAKI-1
  growth at 0.1 µM: 98%
SF-268
  growth at 1 µM: 94%
MDA-MB-435
  growth at 0.01 µM: 91%
HOP-62 [5]
  growth at 100 µM: 14%
SN12C [6]
  growth at 0.01 µM: 97%
SK-MEL-2
  growth at 1 µM: 106%
HCC 2998
  growth at 0.01 µM: 94%
MDA-MB-231
  growth at 0.1 µM: 94%
SR
  growth at 100 µM: -18%
MDA-MB-468
  growth at 0.01 µM: 91%
NCI/ADR-RES
  growth at 0.1 µM: 100%
NCI-H460 [7]
  growth at 0.1 µM: 100%
HOP-62 [8]; read-out: GI50
  GI50: 9.52 µM
HOP-62 [8]; [14]
  CC50: > 100 µM
HOP-62 [8]; read-out: TGI
  TGI: > 100 µM
HOP-62 [8]; read-out: pGI50 (converted)
  GI50: 9.77 µM
HOP-62 [8]; [15]
  CC50: > 100 µM
HOP-62 [8]; read-out: pTGI (converted)
  TGI: > 100 µM
SNB-19 [9]
  growth at 0.1 µM: 97%
A498
  growth at 100 µM: -2%
OVCAR-3 [10]
  IC50: 3.28 µM
OVCAR-3 [10]; read-out: GI50
  GI50: 3.28 µM
OVCAR-3 [10]; [14]
  CC50: > 100 µM
OVCAR-3 [10]; read-out: TGI
  TGI: 25.7 µM
OVCAR-3 [10]; read-out: pGI50 (converted)
  GI50: 3.31 µM
OVCAR-3 [10]; [15]
  CC50: > 100 µM
OVCAR-3 [10]; read-out: pTGI (converted)
  TGI: 10.2 µM
IGROV-1
  growth at 100 µM: 22%
NCI-H322M
  growth at 1 µM: 90%
UACC-257
  growth at 100 µM: -10%
NCI-H226
  growth at 100 µM: 19%
SNB-19 [11]
  growth at 100 µM: 34%
DU-145 [12]
  growth at 100 µM: 23%
HOP-62 [13]
  growth at 1 µM: 100%
COLO 205
  growth at 1 µM: 97%

## COc1cc(Cl)cc(-c2nn(-c3cccc(NC(=O)c4ccc(N5CCOCC5)c(C(F)(F)F)c4)c3)cc2-c2ccncc2)c1
DU-145 [1]
  growth at 0.1 µM: 97%
SF-295
  growth at 0.1 µM: 94%
SN12C [2]; read-out: GI50
  GI50: > 100 µM
SN12C [2]; read-out: LC50
  LC50: > 100 µM
SN12C [2]; read-out: TGI
  TGI: > 100 µM
SN12C [2]; read-out: pGI50 (converted)
  GI50: > 100 µM
SN12C [2]; read-out: pLC50 (converted)
  LC50: > 100 µM
SN12C [2]; read-out: pTGI (converted)
  TGI: > 100 µM
786-0
  growth at 100 µM: -30%
CCRF-CEM
  growth at 0.01 µM: 96%
NCI-H460 [3]
  growth at 1 µM: 96%
SF-539
  growth at 100 µM: 2%
OVCAR-3 [4]
  growth at 1 µM: 100%
CAKI-1
  growth at 0.1 µM: 100%
SF-268
  growth at 1 µM: 93%
MDA-MB-435
  growth at 0.01 µM: 97%
HOP-62 [5]
  growth at 100 µM: 45%
SN12C [6]
  growth at 0.01 µM: 97%
SK-MEL-2
  growth at 1 µM: 98%
HCC 2998
  growth at 0.01 µM: 95%
MDA-MB-231
  growth at 0.1 µM: 97%
SR
  growth at 100 µM: 4%
MDA-MB-468
  growth at 0.01 µM: 94%
NCI/ADR-RES
  growth at 0.1 µM: 99%
NCI-H460 [7]
  growth at 0.1 µM: 102%
HOP-62 [8]; read-out: GI50
  GI50: 6.78 µM
HOP-62 [8]; [14]
  CC50: > 100 µM
HOP-62 [8]; read-out: TGI
  TGI: > 100 µM
HOP-62 [8]; read-out: pGI50 (converted)
  GI50: 63.1 µM
HOP-62 [8]; [15]
  CC50: > 100 µM
HOP-62 [8]; read-out: pTGI (converted)
  TGI: > 100 µM
SNB-19 [9]
  growth at 0.1 µM: 94%
A498
  growth at 100 µM: 24%
OVCAR-3 [10]
  IC50: 53.1 µM
OVCAR-3 [10]; read-out: GI50
  GI50: 5.31 µM
OVCAR-3 [10]; [14]
  CC50: > 100 µM
OVCAR-3 [10]; read-out: TGI
  TGI: > 100 µM
OVCAR-3 [10]; read-out: pGI50 (converted)
  GI50: 53.7 µM
OVCAR-3 [10]; [15]
  CC50: > 100 µM
OVCAR-3 [10]; read-out: pTGI (converted)
  TGI: > 100 µM
IGROV-1
  growth at 100 µM: 54%
NCI-H322M
  growth at 1 µM: 55%
UACC-257
  growth at 100 µM: -18%
NCI-H226
  growth at 100 µM: 50%
SNB-19 [11]
  growth at 100 µM: 60%
DU-145 [12]
  growth at 100 µM: 54%
HOP-62 [13]
  growth at 1 µM: 107%
COLO 205
  growth at 1 µM: 104%
